Measurements as given in US20180243273A1, “Composition for Intravesical Administration for Treating Bladder Pain” (priority 2017, published 2018).

Assay: Preliminary stability study of API intravesical solution
Assay type: physicochemical
Procedure: Two dose strengths were specified: 40 μg/mL and 150 μg/mL API. These concentrations were defined in order to stay below 80% of the saturated solubility values obtained during previous experiments. To enable dissolution of the API, 0.5 wt.-% and 2 wt.-% vitamin E TPGS were used for 40 μg/mL and 150 μg/mL API, respectively (24 h stirring). The compositions were treated with nitrogen and stored at 5° C., 25° C. and 40° C.

[1] = vitamin E TPGS 0.5%, API 40 μg/mL, Asc. 1%, 6° C., 1 m
[2] = vitamin E TPGS 0.5%, API 40 μg/mL, Asc. 1%, 6° C., 2 w
[3] = vitamin E TPGS 0.5%, API 40 μg/mL, Asc. 1%, t = 0
[4] = vitamin E TPGS 0.5%, API 40 μg/mL, no Asc., treated with nitrogen, 6° C., 1 m
[5] = vitamin E TPGS 0.5%, API 40 μg/mL, no Asc., treated with nitrogen, 6° C., 2 w
[6] = vitamin E TPGS 0.5%, API 40 μg/mL, no Asc., treated with nitrogen, 6° C., 3 m
[7] = vitamin E TPGS 0.5%, API 40 μg/mL, no Asc., treated with nitrogen, 25° C., 1 m
[8] = vitamin E TPGS 0.5%, API 40 μg/mL, no Asc., treated with nitrogen, 25° C., 2 w
[9] = vitamin E TPGS 0.5%, API 40 μg/mL, no Asc., treated with nitrogen, 25° C., 3 m
[10] = vitamin E TPGS 0.5%, API 40 μg/mL, no Asc., treated with nitrogen, 40° C., 1 m
[11] = vitamin E TPGS 0.5%, API 40 μg/mL, no Asc., treated with nitrogen, 40° C., 2 w
[12] = vitamin E TPGS 0.5%, API 40 μg/mL, no Asc., treated with nitrogen, 40° C., 3 m
[13] = vitamin E TPGS 0.5%, API 40 μg/mL, no Asc., treated with nitrogen, t = 0
[14] = vitamin E TPGS 2%, API 150 μg/mL, Asc. 1%, 6° C., 1 m
[15] = vitamin E TPGS 2%, API 150 μg/mL, Asc. 1%, 6° C., 2 w
[16] = vitamin E TPGS 2%, API 150 μg/mL, Asc. 1%, t = 0
[17] = vitamin E TPGS 2%, API 150 μg/mL, no Asc., treated with nitrogen, 6° C., 1 m
[18] = vitamin E TPGS 2%, API 150 μg/mL, no Asc., treated with nitrogen, 6° C., 2 w
[19] = vitamin E TPGS 2%, API 150 μg/mL, no Asc., treated with nitrogen, 6° C., 3 m
[20] = vitamin E TPGS 2%, API 150 μg/mL, no Asc., treated with nitrogen, 25° C., 1 m
[21] = vitamin E TPGS 2%, API 150 μg/mL, no Asc., treated with nitrogen, 25° C., 2 w
[22] = vitamin E TPGS 2%, API 150 μg/mL, no Asc., treated with nitrogen, 25° C., 3 m
[23] = vitamin E TPGS 2%, API 150 μg/mL, no Asc., treated with nitrogen, 40° C., 1 m
[24] = vitamin E TPGS 2%, API 150 μg/mL, no Asc., treated with nitrogen, 40° C., 2 w
[25] = vitamin E TPGS 2%, API 150 μg/mL, no Asc., treated with nitrogen, 40° C., 3 m
[26] = vitamin E TPGS 2%, API 150 μg/mL, no Asc., treated with nitrogen, t = 0

In the case of `CN(C)[C@]1(c2cccc(F)c2)CC[C@]2(CC1)c1[nH]c3ccccc3c1CCN2C(=O)/C=C/c1ccccc1` [API, cis-(E)-4-(3-fluorophenyl)-2′,3′,4′,9′-tetrahydro-N,N-dimethyl-2′-(1-oxo-3-phenyl-2-propenyl)-spiro[cyclohexane-1,1′[1H]-pyrido[3,4-b]indol]-4-amine], the “assay values over storage” value (all investigated compositions, 3 months, stored at 6° C. or 25° C.) was “remained stable”, the assay over storage (stored at 40° C.) was “decreased considerably” and the Assay [1] was 70.25 % L.S. For the same molecule, the Impurities [1] was 1.00 % (a/a), the Assay [2] was 70.56 % L.S and the Impurities [2] was 0.57 % (a/a). The Assay [3] was 70.39 % L.S, the Impurities [3] was 0.57 % (a/a) and the Assay [4] was 54.62 % L.S. For the same molecule, the Impurities [4] was 0.58 % (a/a), the Assay [5] was 54.81 % L.S and the Impurities [5] was 0.08 % (a/a). The Assay [6] was 55.05 % L.S, the Impurities [6] was 0.69 % (a/a) and the Assay [7] was 54.98 % L.S. The Impurities [7] was 0.86 % (a/a), the Assay [8] was 54.71 % L.S and the Impurities [8] was 0.97 % (a/a). For the same molecule, the Assay [9] was 54.50 % L.S, the Impurities [9] was 1.42 % (a/a) and the Assay [10] was 54.06 % L.S. The Impurities [10] was 1.78 % (a/a), the Assay [11] was 54.61 % L.S and the Impurities [11] was 1.04 % (a/a). For the same molecule, the Assay [12] was 52.07 % L.S, the Impurities [12] was 4.94 % (a/a) and the Assay [13] was 54.58 % L.S. For the same molecule, the Impurities [13] was 0.55 % (a/a), the Assay [14] was 67.68 % L.S and the Impurities [14] was 1.16 % (a/a). The Assay [15] was 68.11 % L.S, the Impurities [15] was 0.68 % (a/a) and the Assay [16] was 68.21 % L.S. For the same molecule, the Impurities [16] was 0.68 % (a/a), the Assay [17] was 61.93 % L.S and the Impurities [17] was 0.72 % (a/a). The Assay [18] was 62.29 % L.S, the Impurities [18] was 0.49 % (a/a) and the Assay [19] was 62.05 % L.S. For the same molecule, the Impurities [19] was 0.72 % (a/a), the Assay [20] was 62.07 % L.S and the Impurities [20] was 1.00 % (a/a). The Assay [21] was 61.97 % L.S, the Impurities [21] was 0.68 % (a/a) and the Assay [22] was 61.96 % L.S. For the same molecule, the Impurities [22] was 1.37 % (a/a), the Assay [23] was 61.37 % L.S and the Impurities [23] was 1.84 % (a/a). For the same molecule, the Assay [24] was 61.71 % L.S, the Impurities [24] was 1.16 % (a/a) and the Assay [25] was 59.41 % L.S. For the same molecule, the Impurities [25] was 4.09 % (a/a), the Assay [26] was 61.73 % L.S and the Impurities [26] was 0.44 % (a/a).
